Some test systems named below: BT-549 breast; CAKI-1 renal; CCRF-CEM leukemia; IGROV1 ovarian; M14 melanoma; MDA-MB-231 breast; MDA-N; MOLT-4 leukemia; OVCAR-3 ovarian; SF-539 CNS; UO-31 renal; HCC-2998 colon.
Common to all, as to test: growth of human tumour cells (NCI), 48 h

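Results reflect a 48-hour exposure of cells in 96-well plates to compound at five concentrations. The concentration for full growth arrest is given as TGI.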 Where only a bound is given, the exact number is not on record here.

As to `NC(=S)NNCC(=O)CC(O)(C(F)(F)F)C(F)(F)Cl` (stereo not drawn), the TGI in the test on BT-549 breast, with CAKI-1 renal, in the test on CCRF-CEM leukemia, in the test on IGROV1 ovarian, with M14 melanoma and in the test with MDA-MB-231 breast was greater than 100 µM throughout. The TGI in the test with MDA-N, in the test with MOLT-4 leukemia, in the test with OVCAR-3 ovarian, in the test on SF-539 CNS and with UO-31 renal was greater than 100 µM throughout.
With `CNC(=O)OCc1cnc([N+](=O)[O-])n1C`, the TGI with BT-549 breast, in the test on CAKI-1 renal, with CCRF-CEM leukemia, in the test on HCC-2998 colon, in the test on IGROV1 ovarian and in the test on MDA-MB-231 breast was greater than 100 µM each time. The TGI in the test with MDA-N, in the test on MOLT-4 leukemia, with OVCAR-3 ovarian, in the test on SF-539 CNS and with UO-31 renal was greater than 100 µM in each case.
With `O=C(NNC(=O)c1ccco1)c1ccco1`, the TGI with BT-549 breast, in the test with CAKI-1 renal, with CCRF-CEM leukemia, with IGROV1 ovarian, in the test with M14 melanoma and in the test on MDA-MB-231 breast was greater than 100 µM each time. The TGI in the test on MDA-N, in the test with MOLT-4 leukemia, in the test with OVCAR-3 ovarian, in the test on SF-539 CNS and in the test with UO-31 renal was greater than 100 µM in each case.
In the case of `CNC(=O)[C@H](Cc1ccccc1)NC(=O)N(CCC#N)CCN(C(=O)N[C@@H](Cc1ccccc1)C(=O)OC)c1ccccc1`, the TGI in the test on BT-549 breast, in the test with CAKI-1 renal, in the test on CCRF-CEM leukemia, in the test with M14 melanoma, with MDA-MB-231 breast and in the test on MDA-N was greater than 100 µM each time. Also, the TGI in the test with MOLT-4 leukemia, with OVCAR-3 ovarian, in the test with SF-539 CNS and in the test with UO-31 renal was greater than 100 µM in each case.
As for `COC(=O)[C@@H]1c2c(oc3cc(CO)cc(O)c3c2=O)C=C[C@H]1O`, the TGI turned out to be 12.4 µM in the test with BT-549 breast; 22.4 µM with CAKI-1 renal; 25 µM in the test with CCRF-CEM leukemia; 26.2 µM in the test with IGROV1 ovarian; 19.8 µM in the test with M14 melanoma; 27.5 µM in the test with MDA-MB-231 breast. Also, the TGI with MDA-N is 18.9 µM; in the test with MOLT-4 leukemia, greater than 100 µM; in the test on OVCAR-3 ovarian it was 20.7 µM; in the test with SF-539 CNS it was 9.41 µM; with UO-31 renal it was 14.2 µM.
For the compound `OCCc1ccsc1-c1sc(-c2cc(CCO)c(-c3sc(-c4cc(CCO)c(-c5sccc5CCO)s4)cc3CCO)s2)cc1CCO`, the TGI is 2.21 µM in the test on BT-549 breast; 2.95 µM in the test on CAKI-1 renal; greater than 25.4 µM with CCRF-CEM leukemia; 2.95 µM in the test with HCC-2998 colon; 2.6 µM in the test on IGROV1 ovarian; 3.36 µM with M14 melanoma. Also, the TGI with MDA-MB-231 breast amounted to 11.9 µM; in the test with MDA-N, 4.29 µM; in the test on OVCAR-3 ovarian, 2.72 µM; in the test on SF-539 CNS it was 2.95 µM; in the test with UO-31 renal it was 2.7 µM.
On to `COC1OC2COC(=O)c3cc(O)c(O)c(O)c3-c3c(cc(O)c(O)c3O)C(=O)OC2C(O)C1O` (stereo not drawn), for which the TGI in the test with BT-549 breast, in the test with CAKI-1 renal, in the test with CCRF-CEM leukemia, in the test with IGROV1 ovarian, in the test on M14 melanoma and with MDA-MB-231 breast was greater than 100 µM each time. In addition, the TGI is 59.2 µM in the test on MDA-N; greater than 100 µM with MOLT-4 leukemia; greater than 100 µM in the test on OVCAR-3 ovarian; greater than 100 µM in the test on SF-539 CNS; greater than 100 µM with UO-31 renal.
As to `Nc1nc(Cl)c(CO)c(NCC2(CO)CCC2)n1`, the TGI in the test with BT-549 breast, in the test with CAKI-1 renal, in the test with CCRF-CEM leukemia, with HCC-2998 colon, in the test on IGROV1 ovarian and with MDA-MB-231 breast was greater than 100 µM in each case. Further, the TGI in the test with MDA-N, with MOLT-4 leukemia, in the test with OVCAR-3 ovarian, in the test with SF-539 CNS and with UO-31 renal was greater than 100 µM throughout.
As for `CCOC(=O)[C@@]12C[C@](/C=C/OC)(O[Si](C)(C)C)[C@@]13c1cc(OC)c(OC)cc1CCN3C(=O)C2=O`, the TGI in the test with BT-549 breast, in the test on CAKI-1 renal, in the test on CCRF-CEM leukemia, in the test with IGROV1 ovarian, with M14 melanoma and in the test on MDA-MB-231 breast was greater than 100 µM each time. The TGI with MDA-N, in the test on MOLT-4 leukemia, in the test on OVCAR-3 ovarian, in the test with SF-539 CNS and with UO-31 renal was greater than 100 µM each time.
As to `COc1cccc(NC(=O)CC(=O)NN)c1`, the TGI in the test on BT-549 breast, in the test on CAKI-1 renal, in the test on CCRF-CEM leukemia, in the test on IGROV1 ovarian, in the test on MDA-MB-231 breast and in the test on MDA-N was greater than 100 µM throughout. The TGI with MOLT-4 leukemia, in the test with OVCAR-3 ovarian, with SF-539 CNS and in the test on UO-31 renal was greater than 100 µM each time.

The record behind these values is PubChem BioAssay (NCI).
